Experimental data published in patent US11499185B2, “Nucleic acid sequencing methods and systems” (OMNIOME, INC., priority 2015, dated 2022).

Target: T1, HIV reverse transcriptase (Human immunodeficiency virus type 1 group M subtype B, UniProt P04585)
T1 construct: Recombinant purified HIV reverse transcriptase (HIV RT); purchased Worthington Biochemical Corp (Lakewood, N.J.)
Experiment: Binding of HIV RT to biosensor coated with primer-template (Octet QK), with dNTP and NNRTI
Design: species or system HIV-1
Method: Template oligonucleotide Btn-4460-45095 and primer oligonucleotide 4496-4509AS were synthesized and analyzed (liquid chromatography-mass spectrometry (LC-MS) and electrospray ionization (ESI)) by Integrated DNA Technologies (Coralville, Iowa). Oligonucleotides were prepared in TE Buffer (10 mM Tris pH 8.0, 0.1 mM EDTA) to 100 μM. Primer and template oligonucleotides were combined (10 μM each strand) in a tube containing Annealing Buffer (10 mM Tris pH 8.0, 0.1 mM EDTA, 80 mM KCl). The tube containing primer-template solution was loaded onto a dry heat block (95° C. for 5 min), and the block was transferred to the bench top to anneal the strands by gradual cooling to ambient temperature. Uncompetitive NNRTI compounds (Pitta et al., J. Enzyme Inhib. Med. Chem. 28(10):113-22 (2013)), which is incorporated by reference herein in its entirety), were from Epigen Biosciences, Inc. (San Diego, Calif.). NNRTI compounds 7 (3-4-chloro-benzo[d]thiazol-2yl)-2-(2-chloro-6-fluorophenyl)thiazolidin-4-one) and 18 (3-(6-ethoxy-benzo[d]thiazol-2-yl)-2-(2-chloro-6-fluorophenyl)thiazolidin-4-one) were dissolved in dimethylsulfoxide (DMSO) to concentrations of 25.0 mM and 15.0 mM, respectively. Recombinant purified HIV reverse transcriptase (HIV RT) was from Worthington Biochemical Corp (Lakewood, N.J.). Ultra-pure bovine serum albumin (BSA) was from Ambion (Foster City, Calif.). All reagents and solutions were molecular biology grade.
Primer-template duplex was diluted ([…]) into Annealing Buffer. Immediately before use, HIV Reverse Transcriptase was pre-diluted into Enzyme Diluent (50 mM Tris, pH 8.0, 8 mM MgCl2). Binding buffer (50 mM Tris, pH 8.0, 160 mM KCl, 0.5 mM EDTA, 11 mM MgCl2, 0.3% (v/v) Triton X-100, 5.3 mM dithiothreitol (DTT), 100 μg/mL bovine serum albumin (BSA), 100 μM dNTP (dATP, dTTP, dGTP or dCTP), 100 nM HIV RT). NNRTI compounds were pre-diluted with DMSO immediately before being spiked into Binding Buffer. Reaction Buffer was Binding Buffer without NNRTI, dNTP or HIV RT enzyme. Buffer containing Primer-Template (PT), PT Wash Buffer, Binding buffer containing one dNTP, and Reaction Buffer were loaded (200 μL/well) into a Greiner 96-well black microplate (Sigma-Aldrich, St. Louis, Mo.; catalog number M9685). Streptavidin (SA) Biosensors (Pall ForteBio Corp., Menlo Park, Calif.; catalog number 18-5019) were re-hydrated in Annealing Buffer for approximately 10 minutes before use. The Octet QK biosensor system (Pall ForteBio Corp., Menlo Park, Calif.) was set for 30° C. operation and was programmed to coat the biosensors with Primer-Template and wash away unbound Primer-Template with PT Wash Buffer. Biosensors were transferred to Binding Buffer containing HIV RT+dCTP±NNRTI (association phase) followed by Reaction Buffer (dCTP incorporation and dissociation phase). Similarly, biosensors were transferred cyclically to solutions containing individual deoxyribonucleoside triphosphates (dATP, dGTP, dCTP or dTTP) as indicated. Cycles of binding and incorporation were repeated multiple times.
Data were imported into Microsoft Excel and Prism software (GraphPad Software, San Diego, Calif.) for display. The progress of binding and dissociation reactions was smoothed either by averaging within a 19.4-second window or by Prism software (19.4-second window and 6th-order smoothing polynomial).

| SMILES | binding to biosensor coated with primer-template in the association phase (HIV RT + incorrect nucleotide dTTP (cycle 4) + NNRTI 80 μM, FIG. 8) | binding to biosensor coated with primer-template in the association phase (HIV reverse transcriptase + correct dNTP + NNRTI 80 μM, ALK primer-template, FIG. 8) | binding to biosensor coated with primer-template in the association phase (control: HIV RT with 80 μM NNRTI, no dNTP, FIG. 8) | binding to biosensor coated with primer-template in the association phase (HIV RT + incorrect nucleotides dCTP and dATP (cycles 7 and 8) + NNRTI 40 μM, FIG. 7A) | binding to biosensor coated with primer-template in the association phase (HIV reverse transcriptase + correct dNTP + NNRTI 40 μM, ALK primer-template, FIG. 7A) | binding to biosensor coated with primer-template in the association phase (control: HIV RT with 40 μM NNRTI, no dNTP, FIG. 7A) |
| --- | --- | --- | --- | --- | --- | --- |
| CCOc1ccc2nc(N3C(=O)CSC3c3c(F)cccc3Cl)sc2c1 (stereo not drawn) [NNRTI compound 18, 3-(6-ethoxy-benzo[d]thiazol-2-yl)-2-(2-chloro-6-fluorophenyl)thiazolidin-4-one] | did not show a binding peak | distinct peaks for binding | did not produce appreciable binding peaks |  |  |  |
| O=C1CSC(c2c(F)cccc2Cl)N1c1nc2c(Cl)cccc2s1 (stereo not drawn) [NNRTI compound 7] |  |  |  | did not produce a binding peak | distinct peaks for binding | did not produce appreciable binding peaks |
